Publication PMC5324278, “Novel synthetic analogues of avian β-defensin-12: the role of charge, hydrophobicity, and disulfide bridges in biological functions” (BMC Microbiology, 2017)
Where two headings read alike, the source gives them in different places. Bridge positions count the residues as written; N and C are the ends. Square brackets hold non-standard residues; d marks the D form. Ends that are not written are not given here. Abu = CC[C@H](N)C(=O)O

Experiments:
E. coli (ATCC 25922) = format: cell-based, Escherichia coli
Description: (§1) The minimum inhibitory concentrations (MIC) of AvBDs were determined according to the guidelines of the Clinical and Laboratory Standards Institute (CLSI). The Muller Hinton II broth used in standard MIC assays contained 20–25 mg/L of calcium and 10–12.5 mg/L of magnesium. Modified MICs of AvBDs were also determined under a low-salt and low-nutrient condition by using 100× diluted Muller Hinton II broth containing 0.2 mg/L of calcium, 0.1 mg/L magnesium and 5 mM (292 mg/L) NaCl. MIC obtained under the low-salt and low-nutrient condition was referred to as MIC-ls. AvBD peptides were two-fold serially diluted (2 to 256 μg/ml) in a 96-well microtiter plate. An equal volume (μl) of bacterial suspension was added to each well of the plate. The final bacterial concentration in the wells was 5 × 10^5 CFU/ml. […] To complement MIC-ls assays, the minimum bactericidal concentrations (MBC) were evaluated by sub-culturing the contents of the first two clear wells obtained in the MIC-ls assay onto LB agar plates. All assays were conducted in triplicate. The lowest peptide concentration inhibiting more than 99% of bacterial growth was defined as MBC-ls. AvBD analogues were regarded as bactericidal if the MBC was no more than four times the MIC [29].

[1] = tested on: S. Typhimurium (ATCC 14028); format: cell-based, Salmonella enteric serovar Typhimurium
Description: as §1

[2] = tested on: P. aeruginosa (ATCC 27853); format: cell-based, Pseudomonas aeruginosa
Description: as §1

S. aureus (ATCC 29213) = format: cell-based, Staphylococcus aureus
Description: as §1

[3] = tested on: mouse immature dendritic JAWSII cells; test: Chemotaxis assay, 48-well microchemotaxis chamber; format: cell-based; conditions: for chemotactic activity for JAWSII cells (in words): Fig. 9
Description: Migration of JAWSII and CCR2-CHO-K1 cells in response to AvBD-12 analogues was determined using a 48-well microchemotaxis chamber technique as previously described. Chemotaxis buffer (Minimum Essential Medium containing 0.1% BSA, 100U/ml penicillin, and 100 μg/ml streptomycin) and bacterial peptide N-Formyl-methionyl-leucyl-phenylalanine (fMLF, Sigma-Aldrich) were included as negative and positive controls, respectively. The results were presented as chemotactic index (C.I.). C.I. = number of migrated cells induced by AvBDs / number of migrated cells induced by chemotactic buffer. The assay was repeated five times.

CHO-K1 cells = test: MTT cell cytotoxicity assay; format: cell-based; conditions: 256 μg/ml; 4, 12, 24 and 48 hours; Student t-test treated vs untreated; n = 3; Figure S1
Description: Chicken macrophage cell lines MQ-NCSU and HD11 were maintained in RPMI-1640 media supplemented with 10% fetal bovine serum (FBS), 2% chicken serum, 100 U/ml penicillin and 100 μg/ml streptomycin (Sigma-Aldrich) at 37 °C in humidified air with 5% CO2. CHO-K1 cells were cultured in the same media without 2% chicken serum. For CCR2-transfected CHO-K1 cells, the medium was supplemented with 500 μg/ml G418 was added (Sigma-Aldrich). Murine immature dendritic cell line JAWSII (ATCC CRL-11904™) was cultured in Alpha minimum essential medium containing 4 mM L-glutamine, 1 mM sodium pyruvate, 5 ng/ml murine Granulocyte macrophage colony-stimulating factor (GM-CSF), 20% FBS, 100 U/ml penicillin and 100 μg/ml streptomycin at 37 °C in humidified air with 5% CO2. The cell cytotoxicity was determined using the MTT (3-(4, 5-dimethylthiazol-2-yl)-2, 5-diphenyltetrazolium bromide metabolic activity assay according to the manufacturer’s instruction (Thermo Fisher Scientific). Briefly, cells (5 × 10^3 cells/well) were seeded in 96-well tissue culture plates, incubated overnight and treated with AvBDs at concentrations of 4, 16, 64 and 256 μg/ml for 4, 12, 24 and 48 h at 37 °C. After treatment, 20 μl of 12 mM MTT solution was added to each well. The plate was incubated for 4 h and read at 540 nm. Viability was expressed as percentage of viable cells relative to the untreated control. The experiments were performed in triplicate.

[4] = tested on: Salmonella enteric serovar Typhimurium (ATCC 14028); format: cell-based; conditions: for percent of killing of S. Typhimurium / killing activity against S. Typhimurium retained at 150 mM NaCl: ATCC 14028, 2 h; for percent of killing of S. Typhimurium: 16 μg/ml; for killing activity against S. Typhimurium retained at 150 mM NaCl: 32 μg/ml
Description: (§2) Escherichia coli (ATCC 25922), Pseudomonas aeruginosa (ATCC 27853), Salmonella enteric serovar Typhimurium (ATCC 14028) and Staphylococcus aureus (ATCC 29213) were used to assess the antimicrobial activity of AvBD analogues. All bacterial strains were grown on Luria-Bertani (LB) agar plates or Trypticase Soy Agar with 5% Sheep Blood (TSA, Thermo Fisher Scientific) plates at 37 °C. Antimicrobial activity was determined by a colony counting assay. In brief, bacteria were resuspended in 100-fold diluted Mueller Hinton II broth with 5 mM NaCl (minimal growth medium) to obtain a final bacterial concentration of 2 × 10^5 CFU/ml. Twenty-five microliters of bacterial suspension and 25 μl of AvBD analogue solution were mixed in the wells of a 96-well polypropylene microtiter plate (Nunc™, Thermo Fisher Scientific). The final peptide concentrations were 2, 4, 8, 16, 32, 64 and 128 μg/ml. The minimal growth medium without AvBD peptide was included as a negative control. The bacterial-peptide mixtures were incubated at 37 °C for 2 h, ten-fold serially diluted and plated on LB agar plates. The numbers of bacteria colonies were enumerated after 16 h of incubation at 37 °C. Antimicrobial activity was expressed as percent of killing using the following formula: (CFUcontrol - CFUtreated) / CFUcontrol × 100%. To assess the resistance of AvBD analogues to sodium chloride (NaCl), antimicrobial assays were carried out in the presence of 5 mM, 50 mM, 100 mM or 150 mM NaCl. All assays were performed in triplicate.

[5] = tested on: Escherichia coli (ATCC 25922); format: cell-based; conditions: ATCC 25922, 2 h, 16 μg/ml
Description: as §2

[6] = tested on: Pseudomonas aeruginosa (ATCC 27853); format: cell-based; conditions: ATCC 27853, 2 h; for percent of killing of P. aeruginosa: 16 μg/ml; for killing potency against P. aeruginosa retained at 150 mM NaCl: 32 μg/ml
Description: as §2

[7] = tested on: Staphylococcus aureus (ATCC 29213); format: cell-based; conditions: ATCC 29213, 2 h; for percent of killing of S. aureus: 16 μg/ml; for killing activity against S. aureus retained at 150 mM NaCl: 64 μg/ml
Description: as §2

[8] = 100× diluted Muller Hinton II broth, 5 mM NaCl, 5 × 10^5 CFU/ml, 37 °C, 24 h, triplicate
[9] = CLSI, standard Muller Hinton II broth, 5 × 10^5 CFU/ml, 37 °C, 24 h, triplicate
[10] = sub-culture of clear MIC-ls wells on LB agar, lowest concentration inhibiting more than 99% of growth, triplicate

Substance | chemotactic activity for JAWSII cells (in words) ([3]; n = 5) | MBC-ls E. coli (ATCC 25922) (E. coli (ATCC 25922); ATCC 25922, 24 h) | MIC-ls E. coli (ATCC 25922) (E. coli (ATCC 25922); ATCC 25922, 24 h) | MBC-ls S. Typhimurium (ATCC 14028) ([1]; ATCC 14028, 24 h) | MIC-ls S. Typhimurium (ATCC 14028) ([1]; ATCC 14028, 24 h) | MBC-ls P. aeruginosa (ATCC 27853) ([2]; ATCC 27853, 24 h) | MIC-ls P. aeruginosa (ATCC 27853) ([2]; ATCC 27853, 24 h) | MBC-ls S. aureus (ATCC 29213) (S. aureus (ATCC 29213); ATCC 29213, 24 h) | MIC-ls S. aureus (ATCC 29213) (S. aureus (ATCC 29213); ATCC 29213, 24 h) | percent of killing of E. coli [5] | percent of killing of P. aeruginosa [6] | percent of killing of S. Typhimurium [4] | percent of killing of S. aureus [7] | further results
GPDSC^1NHDRGLC^2RVGNC^3NPGEYLAKYC^4FEPVILC^5C^6VRNRWA (bicyclic or more) [AvBD-12/6, group 3 hybrid peptide: backbone of AvBD-12 with amino acid residues of AvBD-6] | retained the chemotactic function | – | – | – | – | – | – | – | – | – | – | – | – | MIC-ls E. coli (ATCC 25922) (E. coli (ATCC 25922); [8]): 8 µg/mL; MIC E. coli (ATCC 25922) (E. coli (ATCC 25922); [9]): 256 µg/mL; MBC-ls E. coli (ATCC 25922) (E. coli (ATCC 25922); [10]): 32 µg/mL; MIC-ls S. Typhimurium (ATCC 14028) [1, 8]: 16 µg/mL; MIC S. Typhimurium (ATCC 14028) [1, 9]: >256 µg/mL; MBC-ls S. Typhimurium (ATCC 14028) [1, 10]: 64 µg/mL; MIC-ls P. aeruginosa (ATCC 27853) [2, 8]: 64 µg/mL; MIC P. aeruginosa (ATCC 27853) [2, 9]: >256 µg/mL; MBC-ls P. aeruginosa (ATCC 27853) [2, 10]: 256 µg/mL; MIC-ls S. aureus (ATCC 29213) (S. aureus (ATCC 29213); [8]): 256 µg/mL; MIC S. aureus (ATCC 29213) (S. aureus (ATCC 29213); [9]): 256 µg/mL; MBC-ls S. aureus (ATCC 29213) (S. aureus (ATCC 29213); [10]): 256 µg/mL; metabolic activity (viability relative to untreated control), CHO-K1 (CHO-K1 cells): No significant difference was found
GPDS[Abu]NHDRGLCRVGNCNPGEYLAKYCFEPVIL[Abu]CKPLSPTPTKT (disulfide 12-27, 17-35) [AvBD-12A4] | – | >256 µg/mL | 128 µg/mL | >256 µg/mL | 256 µg/mL | >256 µg/mL | 256 µg/mL | >256 µg/mL | >256 µg/mL | – | – | – | – | killing activity against S. Typhimurium compared with AvBD-12 (in words) ([4]; 2 to 128 μg/ml, 2 h at 37 °C, p < 0.05, Fig. 4): weaker action than AvBD-12
GPDS[Abu]NHDRGL[Abu]RVGNCNPGEYLAKY[Abu]FEPVIL[Abu]CKPLSPTPTKT (disulfide 17-35) [AvBD-12A5] | lost their chemotactic activity | 256 µg/mL | 64 µg/mL | >256 µg/mL | 256 µg/mL | >256 µg/mL | 256 µg/mL | >256 µg/mL | >256 µg/mL | – | – | – | – | –
GPDS[Abu]NHDRGL[Abu]RVGN[Abu]NPGEYLAKY[Abu]FEPVIL[Abu][Abu]KPLSPTPTKT [AvBD-12A6] | lost their chemotactic activity | 256 µg/mL | 64 µg/mL | >256 µg/mL | 256 µg/mL | >256 µg/mL | 256 µg/mL | >256 µg/mL | >256 µg/mL | – | – | – | – | –
GPHSANHVRGLARVGNANPGLYLAKYAFIPVILAAKPLSPTPTKT [AvBD-12A1] | – | 32 µg/mL | 8 µg/mL | 128 µg/mL | 32 µg/mL | 256 µg/mL | 32 µg/mL | >256 µg/mL | 256 µg/mL | 88.6% | 72.3% | 95.6% | 77.2% | –
GPRSANHKRGLARVGNANPGKYLAKYSFRPVILSSKPLSPTPTKT [AvBD-12A3] | – | 16 µg/mL | 4 µg/mL | 64 µg/mL | 16 µg/mL | 16 µg/mL | 8 µg/mL | 256 µg/mL | 128 µg/mL | 100% | 100% | 93.9% | 91.7% | killing potency against E. coli retained at 150 mM NaCl [5]: approximately 80%; killing potency against P. aeruginosa retained at 150 mM NaCl [6]: approximately 80%; killing activity against S. Typhimurium retained at 150 mM NaCl [4]: 30-60%; killing activity against S. aureus retained at 150 mM NaCl [7]: 30-60%; MIC E. coli (ATCC 25922) (E. coli (ATCC 25922); ATCC 25922, 24 h): 128 µg/mL; MIC S. Typhimurium (ATCC 14028) ([1]; ATCC 14028, 24 h): >256 µg/mL; MIC P. aeruginosa (ATCC 27853) ([2]; ATCC 27853, 24 h): >256 µg/mL; MIC S. aureus (ATCC 29213) (S. aureus (ATCC 29213); ATCC 29213, 24 h): >256 µg/mL; chemotactic index (C.I.) for JAWSII cells ([3]; peptide 64 μg/ml, migrated cells with peptide / with chemotactic buffer, n = 5): 3.74; chemotactic activity for JAWSII cells, % of wild type ([3]; peptide 64 μg/ml, relative to AvBD-12): 56.6 % of wild type; metabolic activity (viability relative to untreated control), CHO-K1 (CHO-K1 cells): No significant difference was found
GPRSSNHKRGLSRVGNSNPGKYLAKYAFRPVILAAKPLSPTPTKT [AvBD-12A2] | – | 16 µg/mL | 4 µg/mL | 64 µg/mL | 16 µg/mL | 32 µg/mL | 16 µg/mL | 256 µg/mL | 256 µg/mL | 100% | 98% | 93.9% | 83.1% | killing potency against E. coli retained at 150 mM NaCl [5]: approximately 80%; killing potency against P. aeruginosa retained at 150 mM NaCl [6]: approximately 80%; killing activity against S. Typhimurium retained at 150 mM NaCl [4]: 30-60%; killing activity against S. aureus retained at 150 mM NaCl [7]: 30-60%
